Assay results taken from paper PMC6696115, “Characterization of Antimicrobial, Antioxidant, and Leishmanicidal Activities of Schiff Base Derivatives of 4-Aminoantipyrine” (Molecules, 2019).
Values after ≈ are worked out from the molar mass of the structure shown.

Key:
[1] = system: S. cerevisiae (backgrounds W303 and BY4741); experiment: antimicrobial serial microdilution, S. cerevisiae; format: cell-based, Saccharomyces cerevisiae; conditions: for MIC: read-out: MIC S. cerevisiae
Protocol: (§1) The in vitro antifungal and antimicrobial activities were determined by testing the Schiff bases against the fungi Saccharomyces cerevisiae, Candida albicans, and Aspergillus niger and the bacteria Staphylococcus aureus, Enterococcus faecalis (Gram-positive), Pseudomonas aeruginosa, and Escherichia coli (Gram-negative).
(§2) The bacterial inoculum was prepared by emulsifying overnight colonies from an agar medium in broth (Mueller–Hinton broth). The suspensions were adjusted to a final organism density of 5 × 10^5 colony former units (cfu)/mL. […] The emulsifying of A. niger cultures was done by pouring 5 mL of saline and 0.1% of polysorbate 80 over the Petri dishes. Then, 100 µL of this suspension were diluted in 5 mL of saline and adjusted to an optical density of 0.1 at 530 nm. For S. cerevisiae, fresh exponential YPAD (yeast extract 1%, peptone 2%, adenine 0.004%, […]) cultures were adjusted to an optical density of 0.5 at 600 nm, and then diluted to the equivalent of 1 × 10^4 cells/mL (10^−3 dilution). Stock solutions of Schiff bases were prepared by dissolving them in DMSO at 10 mg/mL. […] The range of concentrations used was empirically selected for each organisms and the Schiff base. Drug sensitivities were assayed by serial dilutions in 96-well plates as previously described. A row with media and cells but without drug was the positive control. The blank was done by preparing a row with media and drugs, but without cells. Plates were fitted with a tight lid before incubation to prevent desiccation. […] The minimum bactericidal concentration (MBC) and fungicidal concentration (MFC) were determined by spreading 100 µL of culture from each well onto a plate (Mueller–Hinton agar for bacteria, Sabouraud dextrose agar for fungi except S. cerevisiae, and YPAD for S. cerevisiae).

[2] = system: Enterococcus faecalis ATCC 29212; experiment: antimicrobial serial microdilution, E. faecalis; format: cell-based
Protocol: as §1, §2

[3] = system: Escherichia coli ATCC 25922; experiment: antimicrobial serial microdilution, E. coli; format: cell-based
Protocol: as §1, §2

[4] = system: promastigotes from L. mexicana (M379); experiment: leishmanicidal activity, MTT colorimetric assay; format: cell-based; conditions: Leishmania mexicana, 48 h exposure, 1% DMSO
Protocol: Leishmanicidal activities of all Schiff bases were evaluated by measuring promastigote mitochondrial activity using MTT colorimetric assay as described previously. […] The medium was renewed every four days. Parasite density was determined in a Neubauer chamber.
Into each well of a 96-well cell culture dish was dispensed 1 × 10^6 parasites. A stock solution of each of the Schiff Base was prepared in DMSO, and serial dilutions were added to the parasite suspension, keeping the solvent concentration at 1%. The final volume was 100 µL for each well and triplicate conditions were carried out. Pentamidine treatment (100 µg/mL) and untreated parasites were used as positive control and negative control, respectively. After exposure to the compounds for 48 h in culture medium, 10 µL of a solution of 5 mg/mL MTT dissolved in PBS was added to each well. […] Later, the plate was centrifuged at 4400 rpm for 10 min and the culture medium was then aspirated. Next, 100 µL of DMSO were added into each well to solubilize the formazan and the plate was shaken for 5 min. The colored formazan salt was measured by recording changes in absorbance at 570 nm using a microplate reader, a BioTek Synergy HT spectrophotometer. A reference wavelength of 630 nm was used to subtract background. Optical densities were analyzed as the quantity of formazan is directly proportional to the number of viable parasites. Data were analyzed with the statistical software GraphPad Prism.

[5] = system: Candida albicans ATCC 10231; experiment: antimicrobial serial microdilution, C. albicans; format: cell-based
Protocol: as §1, §2

P. aeruginosa ATCC 27853 = experiment: antimicrobial serial microdilution, P. aeruginosa; format: cell-based; conditions: Pseudomonas aeruginosa, ATCC27853, 37 °C, 24 h
Protocol: as §1, §2

[6] = system: Aspergillus niger ATCC 6275; experiment: antimicrobial serial microdilution, A. niger; format: cell-based; conditions: for MIC: 96-well plates, max 2% DMSO
Protocol: as §1, §2

[7] = DPPH radical scavenging assay; format: biochemical; conditions: 30 min, room temperature, dark, absorbance 515 nm
Protocol: This was used immediately. The experimental procedure was adapted from the literature. Briefly, in a 96-well plate, 100 µL of solution of DPPH (2, 2-diphenyl-1-picrylhydrazyl) radical (0.2 mM in methanol) was added to 100 µL of methanolic solutions of 3a–j, 4, or 5, prepared as serial two-fold dilutions from the stock solution. Standards were also prepared in the same concentrations.
The percentage of DPPH scavenging was then calculated by using the following formula: % DPPH scavenging=100∗Asample+DPPH−Asample blank/ADPPH−Asolvent

[8] = system: Staphylococcus aureus ATCC 29213; experiment: antimicrobial serial microdilution, S. aureus; format: cell-based
Protocol: as §1, §2

RAW 264.7 cells = experiment: cell viability, MTT dye assay; format: cell-based, murine; conditions: 48 h
Protocol: The specificity and selectivity for the pathogen target is a key point for any potential drug.
The medium was renewed once a week. The viability was determined using MTT (thiazolyl blue tetrazolium bromide) dye assay as described previously for leishmanicidal activity assessment, with some variations. Here, 5 × 10^4 cells/well in a final volume of 100 µL were deposited into a 96-well plate in triplicate. Saponin (2 and 4 mg/mL) and untreated cells were used as the positive control and negative control, respectively. Schiff bases were dissolved in DMSO to obtain different serial concentrations (0.01–2000 µM). […] Cells were pelleted by centrifugation at 4400 rpm for 10 minutes and the media was removed. Next, 100 µL/well of DMSO were added and the absorbance at 570 nm was recorded. A reference wavelength of 630 nm was used for background subtraction.

[9] = system: S. cerevisiae wild-type (W303 and BY4741 backgrounds); experiment: drop test, wild-type yeast; format: cell-based, Saccharomyces cerevisiae; conditions: wild-type cells
Protocol: Since the Schiff bases have a limited solubility in dimethyl sulfoxide (DMSO), first, we tested the toxicity of DMSO against the selected microorganism. […] Wild-type cells from W303 background seem to be more resistant, and sensitivity is observed at around 4% DMSO.
Next, we wanted to evaluate the oxidative activity. To do this, drop test assays were performed with wild-type (W303 and BY4741 backgrounds) and sod1 (BY4741 background) yeast cells in the presence of 200 µg/mL of the analyzed Schiff bases (Figure 3). The SOD1 gene encodes superoxide dismutase 1, an enzyme with a major role in detoxifying ROS species generated during metabolism or because of environmental exposure. sod1 mutant cells are unprotected against oxidative agents, decreasing survival in their presence. […] Also, wild-type cells are shown as control, unaffected by the Schiff bases.
For the drop test with S. cerevisiae, wild-type strain (background W303), and wild type and sod1 mutant cells (background BY4741) were grown overnight in YPAD media until an optical density of 0.5 at 600 nm was reached (equivalent to 1 × 10^7 cells/mL). Three serial dilutions were prepared and 5 µL of each was spotted onto a plate (approximately 1 × 10^5, 1 × 10^4, 1 × 10^3, and 1 × 10^2 cells/spot). YPAD plates were supplemented with 200 µg/mL of each Schiff base, and one plate supplemented with 2% DMSO and one plate with YPAD without any drug were used as controls. Plates were incubated at 25 °C for 24, 48, and 72 h.

S. cerevisiae = system: S. cerevisiae; parameters: method as in PMID 24028688; conditions: published data; cited from earlier work
[10] = Saccharomyces cerevisiae, serial microdilution, 35 °C, 48 h
[11] = Enterococcus faecalis, ATCC29212, serial microdilution, 37 °C, 24 h
[12] = noninhibitory concentration, serial microdilution, 37 °C, 24 h
[13] = Escherichia coli, ATCC25922, serial microdilution, 37 °C, 24 h
[14] = Candida albicans, ATCC10231, serial microdilution, 35 °C, 48 h
[15] = Aspergillus niger, ATCC6275, serial microdilution, 35 °C, 48 h
[16] = Staphylococcus aureus, ATCC29213, serial microdilution, 37 °C, 24 h
[17] = noninhibitory concentration, serial microdilution, 35 °C, 48 h

Cc1c(N=Cc2ccccc2)c(=O)n(-c2ccccc2)n1C [Compound 3a, 4-Benzylideneamino-1,5-dimethyl-2-phenyl-1H-pyrazol-3(2H)-one]
MIC [1, 10]: > 200 mg/L | IC50 [2, 11]: 12.2 mg/L (≈ 41.9 µM) | MIC [2, 11]: 32.3 ± 11.7 mg/L (≈ 111 µM) | NIC E. faecalis [2, 12]: 3.6 ± 0.7 µg/mL | MIC [3, 13]: > 200 mg/L | IC50 [4]: > 200 µM | MIC [5, 14]: > 200 mg/L | melting point: 176.8 to 177.2 °C | MIC (P. aeruginosa ATCC 27853): > 200 mg/L | MIC [6, 15]: > 200 mg/L | IC50 [7]: > 200 µM | MIC [8, 16]: > 200 mg/L | % Live Cells (RAW 264.7 cells; RAW 264.7, exposure to 400 µM): 27.1 ± 3.4%

COc1ccc(C=Nc2c(C)n(C)n(-c3ccccc3)c2=O)cc1O [Compound 3e, 4-(3-Hydroxy-4-methoxybenzylideneamino)-1,5-dimethyl-2-phenyl-1H-pyrazol-3(2H)-one]
MIC [1, 10]: > 200 mg/L | MIC [2, 11]: > 200 mg/L | MIC [3, 13]: > 200 mg/L | IC50 [4]: > 200 µM | MIC [5, 14]: > 200 mg/L | melting point: 246.8 to 247.2 °C | MIC (P. aeruginosa ATCC 27853): > 200 mg/L | MIC [6, 15]: > 200 mg/L | IC50 [7]: > 200 µM | MIC [8, 16]: > 200 mg/L | % Live Cells (RAW 264.7 cells; RAW 264.7, exposure to 300 µM (limited solubility)): 27.1 ± 0.8%

Cc1c(N=Cc2cc([N+](=O)[O-])ccc2O)c(=O)n(-c2ccccc2)n1C [Compound 3f, 4-(2-Hydroxy-5-nitrobenzylideneamino)-1,5-dimethyl-2-phenyl-1H-pyrazol-3(2H)-one]
IC50 ([1]; Saccharomyces cerevisiae, serial microdilution, 35 °C, 48 h, read-out: IC50 S. cerevisiae (converted)): 17.9 mg/L (≈ 50.8 µM) | MIC [1, 10]: 55.9 ± 6.2 mg/L (≈ 159 µM) | NIC S. cerevisiae [1, 17]: 5.6 ± 0.9 µg/mL | MIC [2, 11]: > 200 mg/L | IC50 [3, 13]: 15.8 mg/L (≈ 44.8 µM) | MIC [3, 13]: 47.7 ± 1 mg/L (≈ 135 µM) | NIC E. coli [3, 12]: 4.9 ± 0.2 µg/mL | IC50 [4]: 5.3 ± 2.8 µM | IC50 [5, 14]: 10.4 mg/L (≈ 29.5 µM) | MIC [5, 14]: 15.6 ± 0.9 mg/L (≈ 44.3 µM) | NIC C. albicans [5, 17]: 7.5 ± 1.1 µg/mL | melting point: 204.9 to 205.6 °C | MIC (P. aeruginosa ATCC 27853): > 200 mg/L | IC50 [6, 15]: 10.6 mg/L (≈ 30.1 µM) | MIC [6, 15]: 32.6 ± 2.1 mg/L (≈ 92.5 µM) | NIC A. niger [6, 17]: 3.4 ± 0.5 µg/mL | IC50 [7]: > 200 µM | IC50 [8, 16]: 9.5 mg/L (≈ 27 µM) | MIC [8, 16]: 27.7 ± 4.7 mg/L (≈ 78.6 µM) | NIC S. aureus [8, 12]: 3.3 ± 1.5 µg/mL

COc1cc(C=Nc2c(C)n(C)n(-c3ccccc3)c2=O)cc(OC)c1O [Compound 3j, 4-(4-Hydroxy-3,5-dimethoxybenzylideneamino)-1,5-dimethyl-2-phenyl-1H-pyrazol-3(2H)-one]
MIC [1, 10]: > 200 mg/L | MIC [2, 11]: > 200 mg/L | MIC [3, 13]: > 200 mg/L | IC50 [4]: > 200 µM | MIC [5, 14]: > 200 mg/L | melting point: 259.2 to 260.7 °C | MIC (P. aeruginosa ATCC 27853): > 200 mg/L | MIC [6, 15]: > 200 mg/L | IC50 [7]: 15.7 ± 3.2 µM | MIC [8, 16]: > 200 mg/L

C[S+](C)[O-] [DMSO, dimethyl sulfoxide]
IC50 DMSO S. cerevisiae ([1]; DMSO toxicity): 35.62 ± 1.0% | MIC DMSO S. cerevisiae ([1]; DMSO toxicity): 71.47 ± 1.7% | NIC DMSO S. cerevisiae ([1]; DMSO toxicity): 5.04 ± 1.1% | IC50 DMSO E. faecalis ([2]; DMSO toxicity): 8.66 ± 0.6% | MIC DMSO E. faecalis ([2]; DMSO toxicity): 20.02 ± 1.3% | NIC DMSO E. faecalis ([2]; DMSO toxicity): 3.68 ± 0.2% | NIC DMSO E. coli ([3]; DMSO toxicity): 11.95 ± 2.9% | DMSO concentration at which cells begin to show diminished viability (drop test) ([9]; BY4741 strain): ≥ 3% | DMSO concentration at which sensitivity is observed (drop test) ([9]; W303 background): around 4% | IC50 DMSO C. albicans ([5]; DMSO toxicity): 8.50 ± 0.5% | MIC DMSO C. albicans ([5]; DMSO toxicity): 14.98 ± 0.6% | NIC DMSO C. albicans ([5]; DMSO toxicity): 4.94 ± 0.5% | IC50 DMSO A. niger ([6]; DMSO toxicity): 4.36 ± 2.0% | MIC DMSO A. niger ([6]; DMSO toxicity): 19.22 ± 1.3% | NIC DMSO A. niger ([6]; DMSO toxicity): 1.78 ± 0.4% | IC50 DMSO S. aureus ([8]; DMSO toxicity): 20.36 ± 5.2% | MIC DMSO S. aureus ([8]; DMSO toxicity): 32.64 ± 6.9% | NIC DMSO S. aureus ([8]; DMSO toxicity): 8.52 ± 0.9% | DMSO concentration significantly toxic for S. cerevisiae (S. cerevisiae): over 2%
